From ChEMBL document CHEMBL5653631, “A Potent and Selective ULK1 Inhibitor Suppresses Autophagy and Sensitizes Cancer Cells to Nutrient Stress” (iScience, 2018)
One block for each molecule: values may come before it.

How the values were obtained:
[1] = biological target: Serine/threonine-protein kinase SIK3 (Homo sapiens) (UniProt Q9Y2K2); assay: Inhibition of human recombinant QSK at 500 nM in presence of ATP by radiometric assay relative to control
[2] = biological target: Dual specificity protein kinase CLK1 (Homo sapiens) (UniProt P49759); assay: Inhibition of human recombinant CLK1 at 500 nM related to control ULK1
[3] = biological target: TRAF2 and NCK-interacting protein kinase (Homo sapiens) (UniProt Q9UKE5); assay: Inhibition of human recombinant TNIK at 500 nM related to control ULK1
[4] = biological target: Tau-tubulin kinase 1 (Homo sapiens) (UniProt Q5TCY1); assay: Inhibition of human recombinant TTBK1 at 500 nM related to control ULK1
[5] = biological target: T1, Tyrosine-protein kinase Mer (Homo sapiens) (UniProt Q12866); assay: Inhibition of human recombinant MER at 15 nM in presence of ATP by radiometric assay relative to control
T1 sequence (whole entry): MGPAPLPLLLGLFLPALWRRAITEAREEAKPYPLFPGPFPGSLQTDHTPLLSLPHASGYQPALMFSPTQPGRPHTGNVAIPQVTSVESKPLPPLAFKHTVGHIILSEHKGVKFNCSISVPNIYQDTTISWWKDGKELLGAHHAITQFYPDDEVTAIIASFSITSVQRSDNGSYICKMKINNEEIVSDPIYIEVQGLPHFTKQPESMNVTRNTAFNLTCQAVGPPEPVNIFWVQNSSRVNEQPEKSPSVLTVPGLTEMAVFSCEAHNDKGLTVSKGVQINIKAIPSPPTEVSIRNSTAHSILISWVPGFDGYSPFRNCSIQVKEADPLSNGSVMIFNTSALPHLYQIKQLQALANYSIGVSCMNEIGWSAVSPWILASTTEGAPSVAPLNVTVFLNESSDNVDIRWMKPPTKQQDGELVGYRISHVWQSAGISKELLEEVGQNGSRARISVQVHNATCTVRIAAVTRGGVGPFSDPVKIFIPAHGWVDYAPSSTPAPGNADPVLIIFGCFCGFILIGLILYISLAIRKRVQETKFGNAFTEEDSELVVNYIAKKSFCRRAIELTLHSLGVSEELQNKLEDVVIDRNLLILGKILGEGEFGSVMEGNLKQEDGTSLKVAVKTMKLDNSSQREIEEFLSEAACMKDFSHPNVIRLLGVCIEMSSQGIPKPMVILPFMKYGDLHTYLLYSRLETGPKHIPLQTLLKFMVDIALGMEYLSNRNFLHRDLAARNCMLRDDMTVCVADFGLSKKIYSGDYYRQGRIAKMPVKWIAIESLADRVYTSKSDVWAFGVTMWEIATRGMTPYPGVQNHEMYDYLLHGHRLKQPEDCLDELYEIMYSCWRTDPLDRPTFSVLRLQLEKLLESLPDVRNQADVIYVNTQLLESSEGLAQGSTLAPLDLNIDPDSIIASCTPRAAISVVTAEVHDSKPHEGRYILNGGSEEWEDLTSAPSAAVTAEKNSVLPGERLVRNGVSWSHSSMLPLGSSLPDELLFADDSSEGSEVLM

[6] = biological target: Serine/threonine-protein kinase 25 (Homo sapiens) (UniProt O00506); assay: Inhibition of human recombinant YSK1 at 15 nM in presence of ATP by radiometric assay relative to control
[7] = biological target: Mitogen-activated protein kinase 9 (Homo sapiens) (UniProt P45984); assay: Inhibition of human recombinant JNK2 at 15 nM related to control ULK1
[8] = biological target: Cyclin-dependent kinase 1 (Homo sapiens) (UniProt P06493); assay: Inhibition of human recombinant CDC2 at 40 nM in presence of ATP by radiometric assay relative to control
[9] = biological target: T2, Serine/threonine-protein kinase DCLK3 (Homo sapiens) (UniProt Q9C098); assay: Inhibition of human recombinant DCAMKL3 at 40 nM related to control ULK1
T2 sequence (whole entry): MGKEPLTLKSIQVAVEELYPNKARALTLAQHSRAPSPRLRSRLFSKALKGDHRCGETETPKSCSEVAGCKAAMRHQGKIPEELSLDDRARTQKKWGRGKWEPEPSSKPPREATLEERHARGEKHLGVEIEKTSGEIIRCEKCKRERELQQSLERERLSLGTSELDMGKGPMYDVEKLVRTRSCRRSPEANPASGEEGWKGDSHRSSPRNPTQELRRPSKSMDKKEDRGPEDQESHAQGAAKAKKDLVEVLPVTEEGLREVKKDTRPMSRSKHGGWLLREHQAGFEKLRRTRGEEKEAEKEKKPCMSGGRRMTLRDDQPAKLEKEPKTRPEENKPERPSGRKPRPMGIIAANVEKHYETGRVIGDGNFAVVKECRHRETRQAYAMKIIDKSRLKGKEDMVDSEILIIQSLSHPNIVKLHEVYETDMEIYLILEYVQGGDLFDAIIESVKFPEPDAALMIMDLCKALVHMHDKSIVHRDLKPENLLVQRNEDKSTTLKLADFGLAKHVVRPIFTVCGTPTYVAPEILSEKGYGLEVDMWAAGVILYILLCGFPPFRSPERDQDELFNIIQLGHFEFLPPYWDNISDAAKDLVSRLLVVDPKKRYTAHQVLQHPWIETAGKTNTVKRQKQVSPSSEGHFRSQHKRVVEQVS

[10] = biological target: Serine/threonine-protein kinase 26 (Homo sapiens) (UniProt Q9P289); assay: Inhibition of human recombinant MST4 at 40 nM related to control ULK1
[11] = biological target: Serine/threonine-protein kinase Nek4 (Homo sapiens) (UniProt P51957); assay: Inhibition of human recombinant NEK4 at 40 nM related to control ULK1
Serine/threonine-protein kinase Nek4 (Homo sapiens), sequence (P51957 whole entry, looked up): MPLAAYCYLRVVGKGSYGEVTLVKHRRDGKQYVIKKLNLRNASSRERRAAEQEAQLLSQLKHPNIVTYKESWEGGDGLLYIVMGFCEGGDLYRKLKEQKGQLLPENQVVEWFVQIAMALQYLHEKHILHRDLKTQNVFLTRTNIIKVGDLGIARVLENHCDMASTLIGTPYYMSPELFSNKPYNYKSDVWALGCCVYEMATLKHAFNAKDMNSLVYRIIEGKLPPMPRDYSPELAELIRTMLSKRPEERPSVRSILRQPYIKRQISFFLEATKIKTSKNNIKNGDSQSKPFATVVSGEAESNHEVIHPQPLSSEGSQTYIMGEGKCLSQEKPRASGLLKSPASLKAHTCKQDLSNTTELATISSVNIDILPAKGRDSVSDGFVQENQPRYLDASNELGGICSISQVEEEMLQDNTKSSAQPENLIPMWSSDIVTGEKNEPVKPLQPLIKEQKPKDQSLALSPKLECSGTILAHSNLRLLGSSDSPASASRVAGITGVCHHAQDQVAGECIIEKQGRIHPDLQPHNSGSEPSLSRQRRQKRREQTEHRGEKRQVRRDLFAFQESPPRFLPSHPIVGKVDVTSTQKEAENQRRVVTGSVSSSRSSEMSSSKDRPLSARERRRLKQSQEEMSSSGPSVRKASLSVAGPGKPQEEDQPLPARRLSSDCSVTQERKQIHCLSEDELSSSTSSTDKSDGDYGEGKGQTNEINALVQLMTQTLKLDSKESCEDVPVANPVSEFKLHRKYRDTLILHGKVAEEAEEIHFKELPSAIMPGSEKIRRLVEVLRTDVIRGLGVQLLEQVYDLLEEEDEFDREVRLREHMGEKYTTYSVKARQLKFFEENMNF

Mitogen-activated protein kinase 9 (Homo sapiens), sequence (P45984 whole entry, looked up): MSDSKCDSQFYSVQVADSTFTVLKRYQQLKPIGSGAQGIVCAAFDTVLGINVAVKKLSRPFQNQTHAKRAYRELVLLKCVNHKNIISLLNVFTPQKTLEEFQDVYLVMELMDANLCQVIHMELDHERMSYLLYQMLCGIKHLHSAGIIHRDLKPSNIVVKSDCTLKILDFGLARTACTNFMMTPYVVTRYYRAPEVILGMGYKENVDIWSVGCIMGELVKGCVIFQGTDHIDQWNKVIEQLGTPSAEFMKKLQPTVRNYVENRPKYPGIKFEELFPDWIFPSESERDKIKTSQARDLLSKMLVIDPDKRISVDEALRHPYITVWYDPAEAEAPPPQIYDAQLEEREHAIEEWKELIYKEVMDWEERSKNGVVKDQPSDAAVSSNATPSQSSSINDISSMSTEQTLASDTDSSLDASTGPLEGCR
Serine/threonine-protein kinase 26 (Homo sapiens), sequence (Q9P289 2-416 limits assumed): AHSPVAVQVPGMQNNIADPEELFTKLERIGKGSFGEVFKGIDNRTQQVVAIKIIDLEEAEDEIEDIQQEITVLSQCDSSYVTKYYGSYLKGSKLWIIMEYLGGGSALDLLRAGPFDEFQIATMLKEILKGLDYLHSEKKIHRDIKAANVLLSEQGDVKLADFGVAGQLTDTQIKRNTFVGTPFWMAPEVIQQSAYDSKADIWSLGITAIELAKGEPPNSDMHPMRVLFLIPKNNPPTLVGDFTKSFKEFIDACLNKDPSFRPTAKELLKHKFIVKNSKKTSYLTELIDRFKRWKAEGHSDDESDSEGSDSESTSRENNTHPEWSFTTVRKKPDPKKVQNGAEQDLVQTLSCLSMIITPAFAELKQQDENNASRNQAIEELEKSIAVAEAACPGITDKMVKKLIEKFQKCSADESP
Cyclin-dependent kinase 1 (Homo sapiens), sequence (P06493 whole entry, looked up): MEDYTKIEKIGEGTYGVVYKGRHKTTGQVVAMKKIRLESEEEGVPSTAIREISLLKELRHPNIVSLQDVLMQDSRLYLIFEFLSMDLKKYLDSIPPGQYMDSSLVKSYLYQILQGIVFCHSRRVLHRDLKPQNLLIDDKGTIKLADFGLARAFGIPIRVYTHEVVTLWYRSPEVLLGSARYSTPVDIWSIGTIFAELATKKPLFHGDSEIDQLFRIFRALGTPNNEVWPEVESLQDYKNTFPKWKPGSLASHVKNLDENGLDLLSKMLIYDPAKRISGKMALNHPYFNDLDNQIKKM
Serine/threonine-protein kinase SIK3 (Homo sapiens), sequence (Q9Y2K2 whole entry, looked up): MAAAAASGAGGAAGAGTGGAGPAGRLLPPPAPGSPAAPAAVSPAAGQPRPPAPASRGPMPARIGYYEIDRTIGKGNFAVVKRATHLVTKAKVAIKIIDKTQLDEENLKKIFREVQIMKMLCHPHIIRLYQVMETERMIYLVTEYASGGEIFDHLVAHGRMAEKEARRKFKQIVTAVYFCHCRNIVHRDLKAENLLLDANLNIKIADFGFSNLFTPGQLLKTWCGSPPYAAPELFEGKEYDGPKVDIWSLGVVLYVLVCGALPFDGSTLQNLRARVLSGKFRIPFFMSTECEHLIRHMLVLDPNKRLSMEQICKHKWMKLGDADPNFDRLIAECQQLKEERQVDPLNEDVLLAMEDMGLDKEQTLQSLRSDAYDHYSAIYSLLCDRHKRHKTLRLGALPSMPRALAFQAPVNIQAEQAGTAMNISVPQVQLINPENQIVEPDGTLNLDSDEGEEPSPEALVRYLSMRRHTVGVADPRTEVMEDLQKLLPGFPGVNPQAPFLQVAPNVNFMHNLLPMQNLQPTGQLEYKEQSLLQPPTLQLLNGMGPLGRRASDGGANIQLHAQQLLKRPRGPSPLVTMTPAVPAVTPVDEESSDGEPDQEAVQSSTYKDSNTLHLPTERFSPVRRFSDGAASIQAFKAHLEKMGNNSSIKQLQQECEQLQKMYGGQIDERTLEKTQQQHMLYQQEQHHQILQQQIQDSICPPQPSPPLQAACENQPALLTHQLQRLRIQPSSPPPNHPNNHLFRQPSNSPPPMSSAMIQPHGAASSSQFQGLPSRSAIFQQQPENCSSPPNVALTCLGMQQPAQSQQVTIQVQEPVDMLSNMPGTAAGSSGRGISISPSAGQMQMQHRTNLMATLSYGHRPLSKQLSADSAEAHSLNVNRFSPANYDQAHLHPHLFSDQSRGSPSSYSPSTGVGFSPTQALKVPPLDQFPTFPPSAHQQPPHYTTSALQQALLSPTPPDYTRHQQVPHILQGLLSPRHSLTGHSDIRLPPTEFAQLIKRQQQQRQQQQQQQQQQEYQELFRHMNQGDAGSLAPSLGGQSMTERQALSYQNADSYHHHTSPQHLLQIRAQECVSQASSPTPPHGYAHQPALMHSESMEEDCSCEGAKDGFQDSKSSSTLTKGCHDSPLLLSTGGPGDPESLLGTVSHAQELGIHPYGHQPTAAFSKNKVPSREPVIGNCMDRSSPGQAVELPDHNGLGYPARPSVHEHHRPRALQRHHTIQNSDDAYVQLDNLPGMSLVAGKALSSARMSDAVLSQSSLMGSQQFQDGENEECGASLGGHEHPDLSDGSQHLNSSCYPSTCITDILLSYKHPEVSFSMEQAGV
Serine/threonine-protein kinase 25 (Homo sapiens), sequence (O00506 whole entry, looked up): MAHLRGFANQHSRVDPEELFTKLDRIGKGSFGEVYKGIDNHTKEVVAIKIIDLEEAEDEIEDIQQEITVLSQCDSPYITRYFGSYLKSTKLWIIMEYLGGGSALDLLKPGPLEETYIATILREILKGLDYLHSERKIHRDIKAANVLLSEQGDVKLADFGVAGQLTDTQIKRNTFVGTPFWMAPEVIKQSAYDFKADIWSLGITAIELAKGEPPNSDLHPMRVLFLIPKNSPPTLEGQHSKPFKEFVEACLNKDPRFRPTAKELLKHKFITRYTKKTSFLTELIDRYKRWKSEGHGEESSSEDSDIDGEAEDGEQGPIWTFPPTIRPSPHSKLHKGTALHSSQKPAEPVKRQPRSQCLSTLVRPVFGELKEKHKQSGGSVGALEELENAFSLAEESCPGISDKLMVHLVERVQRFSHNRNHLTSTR
Dual specificity protein kinase CLK1 (Homo sapiens), sequence (P49759 whole entry, looked up): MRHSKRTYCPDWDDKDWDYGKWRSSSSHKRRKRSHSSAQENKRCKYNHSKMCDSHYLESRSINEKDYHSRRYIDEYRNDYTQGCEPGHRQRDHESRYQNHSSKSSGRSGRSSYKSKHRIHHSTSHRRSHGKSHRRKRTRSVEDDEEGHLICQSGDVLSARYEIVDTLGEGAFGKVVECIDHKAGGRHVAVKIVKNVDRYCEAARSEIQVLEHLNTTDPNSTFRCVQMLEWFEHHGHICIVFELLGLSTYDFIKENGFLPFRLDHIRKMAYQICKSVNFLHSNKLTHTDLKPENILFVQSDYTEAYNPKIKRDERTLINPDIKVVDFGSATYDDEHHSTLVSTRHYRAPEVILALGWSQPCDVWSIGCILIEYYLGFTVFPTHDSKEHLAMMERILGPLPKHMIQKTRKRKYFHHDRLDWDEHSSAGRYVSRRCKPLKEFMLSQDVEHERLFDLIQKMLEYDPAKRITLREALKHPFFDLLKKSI

inhibition [1]: 8%
fold change (FC) [2]: 0.07
fold change (FC) [3]: 0.05
fold change (FC) [4]: 0.01
Structure (SMILES): CNC(=O)c1ccccc1Oc1nc(Nc2cc(OC)c(OC)c(OC)c2)ncc1Br

inhibition [5]: 34%
inhibition [6]: 0%
fold change (FC) [7]: 0
Structure (SMILES): CC(C)[C@H](NC(=O)c1cc(-c2cnn3cc(-c4ccc(OCCN5CCCCC5)cc4)cnc23)cs1)C(F)(F)F

inhibition [8]: 45%
fold change (FC) [9]: 0.03
fold change (FC) [10]: 0
fold change (FC) [11]: 0.05
Structure (SMILES): O=C(N[C@@H](C1CC1)C(F)(F)F)c1cc(-c2cnn3cc(-c4ccc(F)cc4)cnc23)cs1
